Results as given in ChEMBL document CHEMBL1201862, “PubChem BioAssay data set” (2004).
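Briefly, cells in 96-well plates were exposed to five compound concentrations for 48 h, and endpoints were estimated by linear interpolation. GI50 = concentration required for 50% inhibition of growth.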 Active and inactive are the calls of the source. Cut-off read from the data, not from the text of the source: active = GI50 up to about 1.1 µM and inactive = higher.

Legend:
Experiment in all cases: growth of human tumour cells (NCI), 48 h
HOP-62 = system: HOP-62
XF498 = system: XF498
A549 = system: A549
SNB-75 = system: SNB-75
KM12 = system: KM12
UO-31 = system: UO-31
CAKI-1 = system: CAKI-1
SF-539 = system: SF-539
SK-MEL-28 = system: SK-MEL-28
ACHN = system: ACHN
TK-10 = system: TK-10
LXFL 529 = system: LXFL 529
SK-MEL-2 = system: SK-MEL-2
SNB-19 = system: SNB-19
NCI-H23 = system: NCI-H23
CCRF-CEM = system: CCRF-CEM
NCI-H460 = system: NCI-H460
MOLT-4 = system: MOLT-4
SK-OV-3 = system: SK-OV-3
DMS-114 = system: DMS-114
K562 = system: K562
EKVX = system: EKVX
KM-20L2 = system: KM-20L2
MDA-MB-231 = system: MDA-MB-231
M19-MEL = system: M19-MEL
HT-29 = system: HT-29
786-0 = system: 786-0
T47D = system: T47D
OVCAR-3 = system: OVCAR-3
NCI-H522 = system: NCI-H522
UACC-257 = system: UACC-257
COLO 205 = system: COLO 205
A498 = system: A498
Hs-578T = system: Hs-578T
MCF7 = system: MCF7
RXF 393 = system: RXF 393
MDA-MB-435 = system: MDA-MB-435
SF-268 = system: SF-268
SN12C = system: SN12C
DU-145 = system: DU-145
DLD-1 = system: DLD-1
HOP-18 = system: HOP-18
HCT-116 = system: HCT-116
OVCAR-5 = system: OVCAR-5
OVCAR-8 = system: OVCAR-8
HL-60 = system: HL-60
HCC 2998 = system: HCC 2998
OVCAR-4 = system: OVCAR-4
SK-MEL-5 = system: SK-MEL-5
HCT-15 = system: HCT-15
NCI-H226 = system: NCI-H226
HOP-92 = system: HOP-92
Malme-3M = system: Malme-3M
SNB-78 = system: SNB-78
RPMI-8226 = system: RPMI-8226
LOX IMVI = system: LOX IMVI
SF-295 = system: SF-295
DMS-273 = system: DMS-273
U-251 = system: U-251
IGROV-1 = system: IGROV-1
UACC-62 = system: UACC-62
SR = system: SR
NCI/ADR-RES = system: NCI/ADR-RES
M14 = system: M14
MDA-N = system: MDA-N
SW-620 = system: SW-620
RXF 631 = system: RXF 631

Measured: GI50

NC(=O)C(=O)n1ncc(Cl)c(Cl)c1=O
> 46.9 µM: HCT-15
inactive: HOP-62 > 100 µM | XF498 17 µM | A549 > 67.8 µM | SNB-75 > 42.8 µM | KM12 34.1 µM | UO-31 32.7 µM | CAKI-1 22.8 µM | SF-539 40.2 µM | SK-MEL-28 23.5 µM | ACHN 24.4 µM | TK-10 31.8 µM | LXFL 529 15.1 µM | SK-MEL-2 23.8 µM | SNB-19 > 79.3 µM | NCI-H23 32.7 µM | CCRF-CEM 6.03 µM | NCI-H460 74.8 µM | MOLT-4 3.59 µM | SK-OV-3 > 100 µM | DMS-114 16.9 µM | K562 9.46 µM | EKVX 39.2 µM | KM-20L2 28.7 µM | MDA-MB-231 > 10 µM | M19-MEL 24.7 µM | HT-29 27.5 µM | 786-0 22.2 µM | T47D > 100 µM | OVCAR-3 32.2 µM | NCI-H522 7.73 µM | UACC-257 34 µM | COLO 205 > 32.9 µM | A498 > 72.9 µM | Hs-578T > 100 µM | MCF7 57.3 µM | RXF 393 > 23.5 µM | MDA-MB-435 > 100 µM | SF-268 46 µM | SN12C 18.6 µM | DU-145 > 100 µM | DLD-1 15.3 µM | HOP-18 20 µM | HCT-116 29.1 µM | OVCAR-5 37.5 µM | OVCAR-8 24.2 µM | HL-60 5.26 µM | HCC 2998 25.8 µM | OVCAR-4 29.4 µM | SK-MEL-5 18.3 µM | NCI-H226 > 69.5 µM | HOP-92 > 42.3 µM | Malme-3M 17.5 µM | SNB-78 20.3 µM | RPMI-8226 11.7 µM | LOX IMVI 22.4 µM | SF-295 13.6 µM | DMS-273 25 µM | U-251 > 40.7 µM | IGROV-1 > 56.6 µM | UACC-62 31.5 µM | SR 19.2 µM | NCI/ADR-RES 24.4 µM | M14 28.8 µM | MDA-N > 100 µM | SW-620 13.3 µM

Cc1ccccc1C(C#N)/C(=N/NC(=O)c1cc2ccccc2cc1O)C(=O)Nc1cccc(Cl)c1 (stereo not drawn)
22.4 µM: HCT-15
inactive: HOP-62 27.5 µM | XF498 14.8 µM | A549 18 µM | SNB-75 6.24 µM | KM12 33.4 µM | UO-31 3.13 µM | CAKI-1 19.8 µM | SF-539 26.4 µM | SK-MEL-28 25.1 µM | ACHN 16.4 µM | TK-10 45.7 µM | LXFL 529 20.5 µM | SK-MEL-2 22.5 µM | SNB-19 37.9 µM | NCI-H23 12.4 µM | CCRF-CEM 4.36 µM | NCI-H460 28.7 µM | MOLT-4 10.9 µM | SK-OV-3 41.8 µM | DMS-114 17.2 µM | K562 9.64 µM | EKVX 28.8 µM | KM-20L2 31.1 µM | M19-MEL 17.3 µM | HT-29 42.1 µM | 786-0 7.85 µM | OVCAR-3 5.42 µM | NCI-H522 20.9 µM | UACC-257 20.7 µM | COLO 205 24.4 µM | A498 41.4 µM | SF-268 7.69 µM | SN12C 35.6 µM | DLD-1 18.4 µM | HOP-18 5.37 µM | HCT-116 14.5 µM | OVCAR-5 13.4 µM | OVCAR-8 8.85 µM | HL-60 3.72 µM | HCC 2998 28.8 µM | OVCAR-4 21.6 µM | SK-MEL-5 8.38 µM | NCI-H226 18.5 µM | HOP-92 26.4 µM | Malme-3M 30.8 µM | SNB-78 21.8 µM | RPMI-8226 21.3 µM | SF-295 21.1 µM | DMS-273 6.75 µM | U-251 25.6 µM | IGROV-1 9.93 µM | UACC-62 4.27 µM | SR 12.6 µM | M14 18.6 µM | SW-620 7.85 µM

C(=N\Nc1ccccc1)/c1nc2ccccc2nc1/C=N/Nc1ccccc1
inactive: HOP-62 15.9 µM | A549 14.3 µM | SNB-75 12.2 µM | KM12 13 µM | UO-31 32.2 µM | CAKI-1 7.71 µM | SF-539 14.8 µM | SK-MEL-28 17.5 µM | ACHN 11.8 µM | TK-10 15.8 µM | LXFL 529 11 µM | SK-MEL-2 18.2 µM | SNB-19 18.9 µM | NCI-H23 13.3 µM | CCRF-CEM 23.6 µM | NCI-H460 13.9 µM | MOLT-4 13.2 µM | SK-OV-3 22 µM | K562 7.6 µM | EKVX 22.1 µM | KM-20L2 8.73 µM | M19-MEL 20.7 µM | HT-29 10.8 µM | 786-0 15.6 µM | OVCAR-3 16.6 µM | NCI-H522 16.5 µM | UACC-257 23 µM | A498 16.6 µM | RXF 393 16.3 µM | SF-268 13.1 µM | RXF 631 13.6 µM | SN12C 16.2 µM | DLD-1 11.3 µM | HCT-116 12.7 µM | OVCAR-5 27 µM | OVCAR-8 6.75 µM | HL-60 31 µM | HCC 2998 8.02 µM | OVCAR-4 27.8 µM | SK-MEL-5 19 µM | NCI-H226 18 µM | HOP-92 17.5 µM | Malme-3M 24.9 µM | SNB-78 20.7 µM | LOX IMVI 9.25 µM | SF-295 16.2 µM | IGROV-1 12.1 µM | UACC-62 12.9 µM | SR 19.9 µM | M14 14.7 µM | SW-620 14.9 µM
4.39 µM: HCT-15

Cc1cc2c(cc1C)NC(=O)C(NC(=O)/C=C/c1ccccc1)C=N2 (stereo not drawn)
17.7 µM: HCT-15
inactive: HOP-62 > 100 µM | XF498 28 µM | A549 30.7 µM | SNB-75 44.1 µM | KM12 19.5 µM | UO-31 29.6 µM | CAKI-1 31.3 µM | SF-539 24.8 µM | SK-MEL-28 72.3 µM | ACHN 41.9 µM | TK-10 50.6 µM | LXFL 529 27.9 µM | SK-MEL-2 24.5 µM | SNB-19 64.3 µM | CCRF-CEM 3.56 µM | NCI-H460 30.8 µM | MOLT-4 20.7 µM | SK-OV-3 74.8 µM | DMS-114 12.3 µM | K562 22.5 µM | EKVX > 100 µM | KM-20L2 45.3 µM | M19-MEL 33.3 µM | 786-0 30.3 µM | OVCAR-3 20.1 µM | NCI-H522 16.3 µM | UACC-257 24.3 µM | COLO 205 18.1 µM | A498 37.2 µM | RXF 393 16.1 µM | SF-268 29.9 µM | SN12C 38.8 µM | DLD-1 28.2 µM | HOP-18 37.5 µM | HCT-116 20.8 µM | OVCAR-5 > 100 µM | OVCAR-8 38.2 µM | HL-60 21.9 µM | HCC 2998 48.6 µM | OVCAR-4 38.9 µM | SK-MEL-5 29.9 µM | NCI-H226 95.3 µM | Malme-3M 35.9 µM | SNB-78 66.7 µM | RPMI-8226 25.5 µM | LOX IMVI 22.7 µM | SF-295 50.8 µM | DMS-273 29 µM | U-251 23.9 µM | IGROV-1 34.8 µM | UACC-62 34.8 µM | SR 20.8 µM | M14 34 µM | SW-620 4.73 µM

Cc1ccc(SSCCCCCS(=O)O)cc1
inactive: HOP-62 29.9 µM | XF498 18.6 µM | SNB-75 29.6 µM | KM12 36.1 µM | UO-31 19.9 µM | SF-539 16.2 µM | SK-MEL-28 46.5 µM | ACHN 57.7 µM | TK-10 26.9 µM | LXFL 529 14.6 µM | SK-MEL-2 25.8 µM | SNB-19 35.4 µM | NCI-H23 28.2 µM | CCRF-CEM 4.68 µM | NCI-H460 48.5 µM | MOLT-4 6.34 µM | SK-OV-3 > 100 µM | DMS-114 21 µM | K562 21.2 µM | EKVX 45.3 µM | M19-MEL 37.6 µM | HT-29 37.8 µM | OVCAR-3 22.2 µM | NCI-H522 14.6 µM | UACC-257 31.2 µM | A498 19 µM | RXF 393 15.4 µM | SF-268 14.6 µM | RXF 631 25.9 µM | SN12C 20.6 µM | DLD-1 33.9 µM | HCT-116 14.6 µM | OVCAR-5 > 100 µM | HL-60 16.6 µM | HCC 2998 46.7 µM | OVCAR-4 40 µM | Malme-3M 18.3 µM | SNB-78 25.4 µM | RPMI-8226 24.9 µM | LOX IMVI 16.8 µM | U-251 11 µM | UACC-62 23.5 µM | SR 4.62 µM | M14 40.4 µM
